From patent US12600709B2, “Nonpeptide somatostatin type 5 receptor agonists and uses thereof” (Crinetics Pharmaceuticals, Inc., priority 2019, dated 2026)
Where two headings read alike, the source gives them in different places.

Target: T1, human somatostatin receptor subtype 5 (Homo sapiens, UniProt P35346)
T1 construct: expressed in transfected cells
Assay: cAMP assay for SST5R (inhibition of cAMP in CHO-K1 cells)
Assay type: cell-based
Settings: inhibition of cAMP via human SST5 receptor, read-out: SST5 potency
Outline: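 CHO-K1 cells stably expressing human SSTR5 were treated 20 min at 37 °C with compounds plus 1.6 μM NKH477 in HBSS, 0.5 mM HEPES pH 7.4, 0.1% BSA, 0.2 mM IBMX. Lysate cAMP measured by HTRF against a standard curve; EC50 from cAMP-versus-concentration plots.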

T1 sequence (P35346 whole entry): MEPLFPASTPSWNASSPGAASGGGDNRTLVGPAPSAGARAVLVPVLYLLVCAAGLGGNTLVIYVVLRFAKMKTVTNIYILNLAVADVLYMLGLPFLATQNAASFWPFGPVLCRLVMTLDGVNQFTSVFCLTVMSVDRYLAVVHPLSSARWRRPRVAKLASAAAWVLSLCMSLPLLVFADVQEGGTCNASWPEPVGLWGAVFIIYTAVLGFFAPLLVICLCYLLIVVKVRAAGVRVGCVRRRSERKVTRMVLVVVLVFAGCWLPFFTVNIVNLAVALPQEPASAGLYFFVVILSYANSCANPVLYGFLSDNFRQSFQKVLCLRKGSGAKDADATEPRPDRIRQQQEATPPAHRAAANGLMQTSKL

| SMILES | EC50 (Table A) | EC50 (Table B) |
| --- | --- | --- |
| C[C@@H](C1CC1)N(C)C(=O)c1cnc(C#N)c(-c2cc(F)cc(F)c2)c1N1CC[C@](C)(N)C1 [1-219, 4-[(3S)-3-amino-3-methylpyrrolidin-1-yl]-6-cyano-N-[(1S)-1-cyclopropylethyl]-5-(3,5-difluorophenyl)-N-methylpyridine-3-carboxamide] | < 10 nM |  |
| C[C@@H](NC(=O)c1cnc(C#N)c(-c2cc(F)cc(F)c2)c1N1CC[C@](C)(N)C1)C(F)(F)F [1-222, 4-[(3S)-3-amino-3-methylpyrrolidin-1-yl]-6-cyano-5-(3,5-difluorophenyl)-N-[(2R)-1,1,1-trifluoropropan-2-yl]pyridine-3-carboxamide] | < 10 nM |  |
| Cc1ncc(C(=O)NCC2(O)CCCC2)c(N2CC[C@](C)(N)C2)c1-c1cc(F)cc(F)c1 [1-223, 4-[(3S)-3-amino-3-methylpyrrolidin-1-yl]-5-(3,5-difluorophenyl)-N-[(1-hydroxycyclopentyl)methyl]-6-methylpyridine-3-carboxamide] | 10 to 100 nM |  |
| Cc1ncc(C(=O)NC(CO)C2CC2)c(N2CC[C@](C)(N)C2)c1-c1cc(F)cc(F)c1 (stereo partly drawn) [1-224, 4-[(3S)-3-amino-3-methylpyrrolidin-1-yl]-N-(1-cyclopropyl-2-hydroxyethyl)-5-(3,5-difluorophenyl)-6-methylpyridine-3-carboxamide] | 10 to 100 nM |  |
| CC(NC(=O)c1cnc(C#N)c(-c2cc(F)cc(F)c2)c1N1CCC(N)C1)C(F)(F)F (centres unmarked) [1-225, 4-(3-aminopyrrolidin-1-yl)-6-cyano-5-(3,5-difluorophenyl)-N-(1,1,1-trifluoropropan-2-yl)pyridine-3-carboxamide] | < 10 nM |  |
| C[C@@H](NC(=O)c1cnc(C#N)c(-c2cc(F)cc(F)c2)c1N1CC[C@@H](N)C1)C(F)(F)F [1-227, 4-[(3R)-3-aminopyrrolidin-1-yl]-6-cyano-5-(3,5-difluorophenyl)-N-[(2R)-1,1,1-trifluoropropan-2-yl]pyridine-3-carboxamide] | 100 to 1000 nM |  |
| COc1ncc(C(=O)N2CCCCC2)c(N2CC[C@H](N)C2)c1-c1cc(F)cc(F)c1 [1-235, (3S)-1-[3-(3,5-difluorophenyl)-2-methoxy-5-(piperidine-1-carbonyl)pyridin-4-yl]pyrrolidin-3-amine] | > 1000 nM |  |
| COc1ncc(C(=O)N2CCC(F)(F)CC2)c(N2CC[C@H](N)C2)c1-c1cc(F)cc(F)c1 [1-236, (3S)-1-[3-(3,5-difluorophenyl)-5-(4,4-difluoropiperidine-1-carbonyl)-2-methoxypyridin-4-yl]pyrrolidin-3-amine] | > 1000 nM |  |
| COc1ncc(C(=O)N2CCCC(F)(F)C2)c(N2CC[C@H](N)C2)c1-c1cc(F)cc(F)c1 [1-237, (3S)-1-[3-(3,5-difluorophenyl)-5-(3,3-difluoropiperidine-1-carbonyl)-2-methoxypyridin-4-yl]pyrrolidin-3-amine] | > 1000 nM |  |
| COc1ncc(C(=O)N[C@@H](C)c2ccccn2)c(N2CC[C@](C)(N)C2)c1-c1cc(F)cc(OC(F)F)c1 [1-241, 4-[(3S)-3-amino-3-methylpyrrolidin-1-yl]-5-[3-(difluoromethoxy)-5-fluorophenyl]-6-methoxy-N-[(1S)-1-(pyridin-2-yl)ethyl]pyridine-3-carboxamide] | 10 to 100 nM | 10 to 100 nM |
| Cc1ncc(C(=O)N[C@@H](C)c2ccccn2)c(N2CC[C@](C)(N)C2)c1-c1cc(F)cc(Cl)c1 [1-243, 4-[(3S)-3-amino-3-methylpyrrolidin-1-yl]-5-(3-chloro-5-fluorophenyl)-6-methyl-N-[(1S)-1-(pyridin-2-yl)ethyl]pyridine-3-carboxamide] | < 10 nM |  |
| C[C@]1(N)CCN(c2c(C(=O)NC3CCC(F)(F)CC3)cnc(C3CC3)c2-c2cc(F)cc(F)c2)C1 [1-281, 4-[(3S)-3-amino-3-methylpyrrolidin-1-yl]-6-cyclopropyl-N-(4,4-difluorocyclohexyl)-5-(3,5-difluorophenyl)pyridine-3-carboxamide] | < 10 nM |  |
| C[C@H](NC(=O)c1cnc(C2CC2)c(-c2cc(F)cc(F)c2)c1N1CC[C@](C)(N)C1)C(F)(F)F [1-290, 4-[(3S)-3-amino-3-methylpyrrolidin-1-yl]-6-cyclopropyl-5-(3,5-difluorophenyl)-N-[(2S)-1,1,1-trifluoropropan-2-yl]pyridine-3-carboxamide] | < 10 nM |  |

More lines, now with the values ahead:

| EC50 (Table A) | EC50 (Table B) | SMILES |
| --- | --- | --- |
| 10 to 100 nM |  | CCNC(=O)c1cncc(-c2nc3c(C)cccc3[nH]2)c1N1CC[C@](C)(N)C1 [2-1, 4-[(3S)-3-amino-3-methylpyrrolidin-1-yl]-N-ethyl-5-(4-methyl-1H-1,3-benzodiazol-2-yl)pyridine-3-carboxamide] |
| 10 to 100 nM |  | Cc1cccc2[nH]c(-c3cncc(C(=O)N4CCCC4)c3N3CC[C@](C)(N)C3)nc12 [2-2, (3S)-3-methyl-1-[3-(4-methyl-1H-1,3-benzodiazol-2-yl)-5-(pyrrolidine-1-carbonyl)pyridin-4-yl]pyrrolidin-3-amine] |
| 10 to 100 nM |  | CCN(C)C(=O)c1cncc(-c2nc3c(C)cccc3[nH]2)c1N1CC[C@](C)(N)C1 [2-3, 4-[(3S)-3-amino-3-methylpyrrolidin-1-yl]-N-ethyl-N-methyl-5-(4-methyl-1H-1,3-benzodiazol-2-yl)pyridine-3-carboxamide] |
| < 10 nM |  | Cc1cccc2[nH]c(-c3cncc(C(=O)NC4CCCC4)c3N3CC[C@](C)(N)C3)nc12 [2-4, 4-[(3S)-3-amino-3-methylpyrrolidin-1-yl]-N-cyclopentyl-5-(4-methyl-1H-1,3-benzodiazol-2-yl)pyridine-3-carboxamide] |
| 100 to 1000 nM |  | Cc1cccc2[nH]c(-c3cncc(C(=O)NC4CCOC4)c3N3CC[C@](C)(N)C3)nc12 (stereo partly drawn) [2-5, 4-[(3S)-3-amino-3-methylpyrrolidin-1-yl]-5-(4-methyl-1H-1,3-benzodiazol-2-yl)-N-(oxolan-3-yl)pyridine-3-carboxamide] |
| < 10 nM |  | Cc1cccc2[nH]c(-c3cncc(C(=O)Nc4ccccc4)c3N3CC[C@](C)(N)C3)nc12 [2-6, 4-[(3S)-3-amino-3-methylpyrrolidin-1-yl]-5-(4-methyl-1H-1,3-benzodiazol-2-yl)-N-phenylpyridine-3-carboxamide] |
| 10 to 100 nM |  | COCCNC(=O)c1cncc(-c2nc3c(C)cccc3[nH]2)c1N1CC[C@](C)(N)C1 [2-8, 4-[(3S)-3-amino-3-methylpyrrolidin-1-yl]-N-(2-methoxyethyl)-5-(4-methyl-1H-1,3-benzodiazol-2-yl)pyridine-3-carboxamide] |
| 100 to 1000 nM |  | Cc1cccc2[nH]c(-c3cncc(C(=O)NCCO)c3N3CC[C@](C)(N)C3)nc12 [2-9, 4-[(3S)-3-amino-3-methylpyrrolidin-1-yl]-N-(2-hydroxyethyl)-5-(4-methyl-1H-1,3-benzodiazol-2-yl)pyridine-3-carboxamide] |
| < 10 nM |  | Cc1cccc2[nH]c(-c3cncc(C(=O)N(C)CC(F)(F)F)c3N3CC[C@](C)(N)C3)nc12 [2-10, 4-[(3S)-3-amino-3-methylpyrrolidin-1-yl]-N-methyl-5-(4-methyl-1H-1,3-benzodiazol-2-yl)-N-(2,2,2-trifluoroethyl)pyridine-3-carboxamide] |
| 10 to 100 nM |  | Cc1cccc2[nH]c(-c3cncc(C(=O)NC4CC4)c3N3CC[C@](C)(N)C3)nc12 [2-12, 4-[(3S)-3-amino-3-methylpyrrolidin-1-yl]-N-cyclopropyl-5-(4-methyl-1H-1,3-benzodiazol-2-yl)pyridine-3-carboxamide] |
| < 10 nM |  | Cc1cccc2[nH]c(-c3cncc(C(=O)NCC4CC4)c3N3CC[C@](C)(N)C3)nc12 [2-13, 4-[(3S)-3-amino-3-methylpyrrolidin-1-yl]-N-(cyclopropylmethyl)-5-(4-methyl-1H-1,3-benzodiazol-2-yl)pyridine-3-carboxamide] |
| < 10 nM |  | Cc1cccc2[nH]c(-c3cncc(C(=O)NC(C)C4CC4)c3N3CC[C@](C)(N)C3)nc12 (stereo partly drawn) [2-14, 4-[(3S)-3-amino-3-methylpyrrolidin-1-yl]-N-(1-cyclopropylethyl)-5-(4-methyl-1H-1,3-benzodiazol-2-yl)pyridine-3-carboxamide] |
| < 10 nM |  | Cc1cccc2[nH]c(-c3cncc(C(=O)N(C)C4CCCC4)c3N3CC[C@](C)(N)C3)nc12 [2-16, 4-[(3S)-3-amino-3-methylpyrrolidin-1-yl]-N-cyclopentyl-N-methyl-5-(4-methyl-1H-1,3-benzodiazol-2-yl)pyridine-3-carboxamide] |
| 10 to 100 nM |  | Cc1cccc2[nH]c(-c3cncc(C(=O)NC4CCC(F)(F)CC4)c3N3CC[C@](C)(N)C3)nc12 [2-17, 4-[(3S)-3-amino-3-methylpyrrolidin-1-yl]-N-(4,4-difluorocyclohexyl)-5-(4-methyl-1H-1,3-benzodiazol-2-yl)pyridine-3-carboxamide] |
| < 10 nM |  | Cc1cccc2[nH]c(-c3cncc(C(=O)N[C@H](C)C(F)(F)F)c3N3CC[C@](C)(N)C3)nc12 [2-18, 4-[(3S)-3-amino-3-methylpyrrolidin-1-yl]-5-(4-methyl-1H-1,3-benzodiazol-2-yl)-N-[(2R)-1,1,1-trifluoropropan-2-yl]pyridine-3-carboxamide] |
| < 10 nM |  | Cc1cccc2[nH]c(-c3cncc(C(=O)N4CCC(C)(C)C4)c3N3CC[C@](C)(N)C3)nc12 [2-19, (3S)-1-[3-(3,3-dimethylpyrrolidine-1-carbonyl)-5-(4-methyl-1H-1,3-benzodiazol-2-yl)pyridin-4-yl]-3-methylpyrrolidin-3-amine] |
| < 10 nM |  | Cc1cccc2[nH]c(-c3cncc(C(=O)N4CCCC4(C)C)c3N3CC[C@](C)(N)C3)nc12 [2-20, (3S)-1-[3-(2,2-dimethylpyrrolidine-1-carbonyl)-5-(4-methyl-1H-1,3-benzodiazol-2-yl)pyridin-4-yl]-3-methylpyrrolidin-3-amine] |
| 10 to 100 nM |  | Cc1cccc2[nH]c(-c3cncc(C(=O)N4CC(C)(C)C4)c3N3CC[C@](C)(N)C3)nc12 [2-21, (3S)-1-[3-(3,3-dimethylazetidine-1-carbonyl)-5-(4-methyl-1H-1,3-benzodiazol-2-yl)pyridin-4-yl]-3-methylpyrrolidin-3-amine] |
